# Assay results from EP2987533B1, “7-substituted piperazin-1-yl fluoroquinolone compounds, their use in the treatment of cancer, pharmaceutical compositions and a method for preparation” (priority 2014, dated 2016).
# Like-named read-outs stand apart in the source and are kept apart here.
# Tests used:
# leukemia = assay: NCI five-dose SRB assay, subpanel average; conditions: 48 h; for GI50 / CC50: Homo sapiens; for GI50: read-out: GI50 (median growth inhibitory); for CC50: read-out: LC50 (median lethal); for TGI (total growth inhibitory): average over leukemia subpanel, five concentrations
# A498 = assay: NCI five-dose SRB growth assay; format: cell-based; conditions: Homo sapiens; A498 (Renal Cancer), 48 h
# T-47D = assay: NCI five-dose SRB growth assay; format: cell-based; conditions: Homo sapiens, T47D; T-47D (Breast Cancer), 48 h
# prostate cancer = assay: NCI five-dose SRB assay, subpanel average; conditions: 48 h; for GI50 / CC50: Homo sapiens; for GI50: read-out: GI50 (median growth inhibitory); for CC50: read-out: LC50 (median lethal); for TGI (total growth inhibitory): average over prostate cancer subpanel, five concentrations
# MALME-3M = assay: NCI one-dose SRB growth assay; format: cell-based; conditions: Homo sapiens; MALME-3M (Melanoma), 10^-5 M, 48 h; read-out: % Growth Inhibition (GI %)
# Method in brief: (§1)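 Compounds tested at a single concentration of 10^-5M on cultured human tumor cells for 48 h. Sulforhodamine B protein staining read spectrophotometrically; values are growth percentage of treated cells relative to untreated controls.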
# MDA-MB-435 = assay: NCI one-dose SRB growth assay; format: cell-based; conditions: Homo sapiens; MDA-MB-435 (Melanoma), 10^-5 M, 48 h; read-out: % Growth Inhibition (GI %)
# Method in brief: as §1
# OVCAR-3 = assay: NCI one-dose SRB growth assay; format: cell-based; conditions: Homo sapiens; OVCAR-3 (Ovarian Cancer), 10^-5 M, 48 h; read-out: % Growth Inhibition (GI %)
# Method in brief: as §1
# UACC-62 = assay: NCI one-dose SRB growth assay; format: cell-based; conditions: Homo sapiens; UACC-62 (Melanoma), 10^-5 M, 48 h; read-out: % Growth Inhibition (GI %)
# Method in brief: as §1
# KM12 [1] = assay: NCI one-dose SRB growth assay; format: cell-based; conditions: Homo sapiens; KM12 (Colon Cancer), 10^-5 M, 48 h; read-out: % Growth Inhibition (GI %)
# Method in brief: as §1
# MDA-MB-468 = assay: NCI one-dose SRB growth assay; format: cell-based; conditions: Homo sapiens; MDA-MB-468 (Breast Cancer), 10^-5 M, 48 h; read-out: % Growth Inhibition (GI %)
# Method in brief: as §1
# SR = assay: NCI one-dose SRB growth assay; format: cell-based; conditions: Homo sapiens; SR (Leukemia), 10^-5 M, 48 h; read-out: % Growth Inhibition (GI %)
# Method in brief: as §1
# RXF 393 = assay: NCI one-dose SRB growth assay; format: cell-based; conditions: Homo sapiens; RXF 393 (Renal Cancer), 10^-5 M, 48 h; read-out: % Growth Inhibition (GI %)
# Method in brief: as §1
# U251 = assay: NCI one-dose SRB growth assay; format: cell-based; conditions: Homo sapiens, U-251; U251 (CNS Cancer), 10^-5 M, 48 h; read-out: % Growth Inhibition (GI %)
# Method in brief: as §1
# PRMI-8226 = assay: NCI one-dose SRB growth assay; format: cell-based; conditions: Homo sapiens; PRMI-8226 (Leukemia), 10^-5 M, 48 h; read-out: % Growth Inhibition (GI %)
# Method in brief: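 SRB colorimetry after 48 h incubation with a 10^-5M single dose; growth % relative to untreated.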
# OVCAR-4 = assay: NCI five-dose SRB growth assay; format: cell-based; conditions: Homo sapiens; OVCAR-4 (Ovarian Cancer), 48 h
# IGROV1 = assay: NCI five-dose SRB growth assay; format: cell-based; conditions: Homo sapiens, IGROV-1; IGROV1 (Ovarian Cancer), 48 h
# NCI-H460 = assay: NCI five-dose SRB growth assay; format: cell-based; conditions: Homo sapiens; NCI-H460 (Non-Small Cell Lung Cancer), 48 h
# [2] = test system: full panel of about 60 human tumor cell lines; assay: NCI five-dose SRB assay, full panel mean; conditions: 48 h; for CC50 / GI50: Homo sapiens; for CC50: read-out: LC50 MG-MID (Full panel mean-graph midpoint); for GI50: read-out: GI50 MG-MID (Full panel mean-graph midpoint); for TGI MG-MID (Full panel mean-graph midpoint): five concentrations
# melanoma = assay: NCI five-dose SRB assay, subpanel average; conditions: 48 h; for GI50 / CC50: Homo sapiens; for GI50: read-out: GI50 (median growth inhibitory); for CC50: read-out: LC50 (median lethal); for TGI (total growth inhibitory): average over melanoma subpanel, five concentrations
# COLO 205 = assay: NCI five-dose SRB growth assay; format: cell-based; conditions: Homo sapiens; COLO 205 (Colon Cancer), 48 h
# SK-MEL-5 = assay: NCI five-dose SRB growth assay; format: cell-based; conditions: Homo sapiens; SK-MEL-5 (Melanoma), 48 h
# CAKI-1 = assay: NCI five-dose SRB growth assay; format: cell-based; conditions: Homo sapiens; CAKI-1 (Renal Cancer), 48 h
# KM12 [3] = assay: NCI five-dose SRB growth assay; format: cell-based; conditions: Homo sapiens; KM12 (Colon Cancer), 48 h
# breast cancer = assay: NCI five-dose SRB assay, subpanel average; conditions: 48 h; for GI50 / CC50: Homo sapiens; for GI50: read-out: GI50 (median growth inhibitory); for CC50: read-out: LC50 (median lethal); for TGI (total growth inhibitory): average over breast cancer subpanel, five concentrations
# CNS cancer = assay: NCI five-dose SRB assay, subpanel average; conditions: 48 h; for GI50 / CC50: Homo sapiens; for GI50: read-out: GI50 (median growth inhibitory); for CC50: read-out: LC50 (median lethal); for TGI (total growth inhibitory): average over CNS cancer subpanel, five concentrations
# SNB-19 = assay: NCI five-dose SRB growth assay; format: cell-based; conditions: Homo sapiens; SNB-19 (CNS Cancer), 48 h
# NSC lung cancer = assay: NCI five-dose SRB assay, subpanel average; conditions: 48 h; for GI50 / CC50: Homo sapiens; for GI50: read-out: GI50 (median growth inhibitory); for CC50: read-out: LC50 (median lethal); for TGI (total growth inhibitory): average over NSC lung cancer subpanel, five concentrations
# HT29 = assay: NCI five-dose SRB growth assay; format: cell-based; conditions: Homo sapiens, HT-29; HT29 (Colon Cancer), 48 h
# SK-MEL-28 = assay: NCI five-dose SRB growth assay; format: cell-based; conditions: Homo sapiens; SK-MEL-28 (Melanoma), 48 h
structure (smiles),measurement,setting,value
O=C(O)c1cn(C2CC2)c2cc(N3CCN(S(=O)(=O)c4ccc(Cl)c(Cl)c4)CC3)c(F)cc2c1=O [Compound 3b],GI50,leukemia,3.02 µM
same,CC50,leukemia,> 100 µM
same,TGI (total growth inhibitory),leukemia,62.55 µM
same,GI50,A498,2.91 µM
same,GI50,T-47D,3.77 µM
same,GI50,prostate cancer,3.29 µM
same,CC50,prostate cancer,> 100 µM
same,TGI (total growth inhibitory),prostate cancer,c (Compounds showed values > 100µM)
same,inhibition at 10 µM,MALME-3M,> 100%
same,inhibition at 10 µM,MDA-MB-435,87%
same,inhibition at 10 µM,OVCAR-3,90.1%
same,inhibition at 10 µM,UACC-62,70.4%
same,inhibition at 10 µM,KM12 [1],85.4%
same,inhibition at 10 µM,MDA-MB-468,> 100%
same,inhibition at 10 µM,SR,> 100%
same,inhibition at 10 µM,RXF 393,71%
same,inhibition at 10 µM,U251,87.6%
same,inhibition at 10 µM,PRMI-8226,95.1%
same,GI50,OVCAR-4,2.28 µM
same,GI50,IGROV1,2.73 µM
same,GI50,NCI-H460,3.66 µM
same,CC50,[2]; 60 cell,95.5 µM
same,GI50,[2],3.09 µM
same,TGI MG-MID (Full panel mean-graph midpoint),[2],60.25 µM
same,GI50,melanoma,2.54 µM
same,CC50,melanoma,87.1 µM
same,TGI (total growth inhibitory),melanoma,52.41 µM
same,GI50,COLO 205,3.5 µM
same,GI50,SK-MEL-5,2.04 µM
same,GI50,CAKI-1,2.71 µM
same,GI50,KM12 [3],3.62 µM
same,GI50,breast cancer,3.04 µM
same,CC50,breast cancer,> 100 µM
same,TGI (total growth inhibitory),breast cancer,81.37 µM
same,GI50,CNS cancer,3.68 µM
same,CC50,CNS cancer,> 100 µM
same,TGI (total growth inhibitory),CNS cancer,c (Compounds showed values > 100µM)
same,GI50,SNB-19,3.25 µM
same,GI50,NSC lung cancer,3.07 µM
same,CC50,NSC lung cancer,> 100 µM
same,TGI (total growth inhibitory),NSC lung cancer,84.28 µM
same,GI50,HT29,3.77 µM
same,GI50,SK-MEL-28,2.67 µM
CCn1cc(C(=O)O)c(=O)c2cc(F)c(N3CCN(S(=O)(=O)c4c(C)cc(C)cc4C)CC3)cc21 [Compound 6a],inhibition at 10 µM,MALME-3M,< 10%
same,inhibition at 10 µM,MDA-MB-435,10.9%
same,inhibition at 10 µM,OVCAR-3,10.8%
same,inhibition at 10 µM,UACC-62,24.1%
same,inhibition at 10 µM,KM12 [1],12.8%
same,inhibition at 10 µM,MDA-MB-468,19.7%
same,inhibition at 10 µM,SR,35.5%
same,inhibition at 10 µM,RXF 393,11.1%
same,inhibition at 10 µM,U251,16.6%
same,inhibition at 10 µM,PRMI-8226,35.9%
"O=c1[nH]cc(F)c(=O)[nH]1 [Compound 5-FU, 5-fluorouracil, reference compound]",GI50,leukemia,15.1 µM
same,CC50,leukemia,> 100 µM
same,TGI (total growth inhibitory),leukemia,c (Compounds showed values > 100µM)
same,GI50,prostate cancer,22.7 µM
same,CC50,prostate cancer,> 100 µM
same,TGI (total growth inhibitory),prostate cancer,c (Compounds showed values > 100µM)
same,inhibition at 10 µM,MALME-3M,58.2%
same,inhibition at 10 µM,MDA-MB-435,36.6%
same,inhibition at 10 µM,OVCAR-3,47.4%
same,inhibition at 10 µM,UACC-62,39.7%
same,inhibition at 10 µM,KM12 [1],40.7%
same,inhibition at 10 µM,SR,24.8%
same,inhibition at 10 µM,RXF 393,34.3%
same,inhibition at 10 µM,U251,50.3%
same,inhibition at 10 µM,PRMI-8226,41.4%
same,GI50,[2],22.6 µM
same,CC50,[2],> 100 µM
same,TGI MG-MID (Full panel mean-graph midpoint),[2],c (Compounds showed values > 100µM)
same,GI50,melanoma,70.6 µM
same,CC50,melanoma,> 100 µM
same,TGI (total growth inhibitory),melanoma,c (Compounds showed values > 100µM)
same,GI50,breast cancer,76.4 µM
same,CC50,breast cancer,> 100 µM
same,TGI (total growth inhibitory),breast cancer,c (Compounds showed values > 100µM)
same,GI50,CNS cancer,72.1 µM
same,CC50,CNS cancer,> 100 µM
same,TGI (total growth inhibitory),CNS cancer,c (Compounds showed values > 100µM)
same,GI50,NSC lung cancer,> 100 µM
same,CC50,NSC lung cancer,> 100 µM
same,TGI (total growth inhibitory),NSC lung cancer,c (Compounds showed values > 100µM)
